# ChEMBL document CHEMBL1147329, “Cytotoxic principles and their derivatives of Formosan Solanum plants” (1993)
# Activity calls are given as the source filed them. The calls are words filed in the database; no cut-off is given here.
# What was measured:
# [1] = Cytotoxicity against human PLC/PRF/5 cells; type: functional; conditions: read-out: ED50 (the source's name)
# [2] = tested on: KB; test: Cytotoxicity against human KB cells; type: functional; conditions: read-out: ED50 (the source's name)
# [3] = tested on: Mus musculus; test: Protective activity against CCL4-induced hepatotoxicity in ICR mouse assessed as SGOT/SGPT levels at 0.1 to 3 mg/kg, ip
Compound,EC50 [1] [µg/mL],EC50 [2] [µg/mL],Activity [3]
C[C@@H]1CC[C@]2(O[C@H]3C[C@H]4[C@@H]5CC=C6C[C@@H](O)CC[C@]6(C)[C@H]5CC[C@]4(C)[C@H]3[C@@H]2C)N(C)C1,8.02,6,–
C[C@@H]1CC[C@@]2(NC1)O[C@H]1C[C@H]3[C@@H]4CC=C5C[C@@H](O[C@@H]6O[C@H](CO)[C@@H](O[C@@H]7O[C@@H](C)[C@H](O)[C@@H](O)[C@H]7O)[C@H](O)[C@H]6O)CC[C@]5(C)[C@H]4CC[C@]3(C)[C@H]1[C@@H]2C,–,–,Active
C[C@@H]1CC[C@H]([C@@H](C)C2[C@H](O)C[C@H]3[C@@H]4CC=C5C[C@@H](O[C@@H]6O[C@H](CO)[C@@H](O)[C@H](O)[C@H]6O)CC[C@]5(C)[C@H]4CC[C@]23C)NC1 (some centres undefined),–,–,Active
C[C@H]1CC[C@H]([C@@H](C)[C@H]2[C@H](O)C[C@H]3[C@@H]4CC=C5C[C@@H](O[C@@H]6O[C@H](CO)[C@@H](O)[C@H](O)[C@H]6O)CC[C@]5(C)[C@H]4CC[C@]23C)NC1 [CAPSICASTRINE],1.78,–,–
C[C@H]1CC[C@H]([C@@H](C)[C@H]2[C@H](O)C[C@H]3[C@@H]4CC=C5C[C@@H](O)CC[C@]5(C)[C@H]4CC[C@]23C)NC1 [CAPSIMINE],1.97,1.35,Active
C[C@H]1CC=C([C@@H](C)[C@H]2[C@H](O)C[C@H]3[C@@H]4CC=C5C[C@@H](O)CC[C@]5(C)[C@H]4CC[C@]23C)NC1 [ETIOLINE],2.67,11.2,–
O=C1C[C@@H](c2ccc(O)cc2)Oc2cc(O)cc(O)c21 [NARINGENIN],2.47,2.71,–
C[C@@H]1CC[C@@]2(NC1)O[C@H]1C[C@H]3[C@@H]4CC=C5C[C@@H](O[C@@H]6O[C@H](CO)[C@H](O)[C@H](O[C@@H]7O[C@H](CO)[C@@H](O)[C@H](O)[C@H]7O)[C@H]6O[C@@H]6O[C@@H](C)[C@H](O)[C@@H](O)[C@H]6O)CC[C@]5(C)[C@H]4CC[C@]3(C)[C@H]1[C@@H]2C [SOLASONINE],7.88,11.4,–
